Among the data in patent US20220389061A1, “IMMUNOMODULATORS” (priority 2019, published 2022) are IC50 values, retold here.

Starred links: 1 amine or outer side, 2 acyl side, 3 side chain; linkers in the order of their positions; H or OH if unused. Positions of bridges follow the written chain, without caps; N, C: chain ends. Non-standard residues stand in square brackets, D forms with d. Residues, ends and D or L forms follow the SMILES beside them. Groups on a side chain read outwards from the residue. *: point of attachment. Trp(1-CH2COOH) = N[C@@H](Cc1cn(CC(=O)O)c2ccccc12)C(=O)O; Hyp = O=C(O)[C@@H]1C[C@@H](O)CN1; X3 = S=C(Nc1ccc(Oc2ccccc2)cc1)*; NMeNle = CCCC[C@H](NC)C(=O)O; X64 = COc1cc(OC)c(N*)cc1Cl; X74 = Cc1cc(C)c(N*)c(C)c1; 3Abz = Nc1cccc(C(=O)O)c1; NMeA = CN[C@@H](C)C(=O)O; Dab = NCC[C@H](N)C(=O)O; Dap = NC[C@H](N)C(=O)O; X37 = Fc1cc(F)cc(N*)c1; CO = O=C([*:1])[*:2]

T1 sequence (Q9NZQ7 18-239): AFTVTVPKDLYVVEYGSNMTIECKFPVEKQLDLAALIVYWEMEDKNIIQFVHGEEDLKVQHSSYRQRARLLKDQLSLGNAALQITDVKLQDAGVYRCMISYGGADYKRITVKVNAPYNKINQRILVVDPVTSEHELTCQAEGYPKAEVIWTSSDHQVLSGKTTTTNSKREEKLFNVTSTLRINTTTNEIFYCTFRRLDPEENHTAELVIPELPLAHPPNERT

This assay addresses T1, PD-1/PD-L1 (Homo sapiens, UniProt Q9NZQ7).
T1 construct: TVMV protease site linker (C); made in house; host or cells: HEK293T cells
Description: PD-1/PD-L1 Homogenous Time-Resolved Fluorescence (HTRF) binding assay. The following applies: PD-L1-His 10 nM pre-incubated with inhibitor, PD-1-Ig 20 nM; read-out: HTRF IC50. The procedure, abridged:
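Compounds preincubated 15 min with PD-L1-His (10 nM final), then PD-1-Ig (20 nM final) added for 15 min in dPBS with 0.1% BSA, 0.05% Tween-20. Detection by Eu-cryptate anti-Ig (1 nM) and APC anti-His (20 nM) HTRF.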
In general terms: In TR-FRET formats the signal depends on donor and acceptor labels being close together.
Take `CCCC[C@H]1C(=O)N(C)[C@@H](CCCC)C(=O)N[C@@H](CC(C)C)C(=O)N[C@H](C(=O)NCC(N)=O)CSCC(=O)N[C@@H](Cc2ccc(O)cc2)C(=O)N(C)[C@@H](C)C(=O)N[C@@H](CC(N)=O)C(=O)N2CCC[C@H]2C(=O)N[C@@H](CNC(=O)Nc2cccc(C(=O)OCC)c2)C(=O)N[C@@H](CC(C)C)C(=O)N2C[C@H](O)C[C@H]2C(=O)N[C@@H](Cc2c[nH]c3ccccc23)C(=O)N[C@@H](CCN)C(=O)N[C@@H](Cc2cn(CC(=O)O)c3ccccc23)C(=O)N1C` [Example 1078] ({CH2CO}-Y[NMeA]NP[Dap]([CO-3Abz-OEt])L[Hyp]W[Dab][Trp(1-CH2COOH)][NMeNle][NMeNle]LCG-NH2; thioether N-14): the IC50 was 4.1 nM.

Take `CCCC[C@H]1C(=O)N(C)[C@@H](CCCC)C(=O)N[C@@H](CC(C)C)C(=O)N[C@H](C(=O)NCC(N)=O)CSCC(=O)N[C@@H](Cc2ccc(O)cc2)C(=O)N(C)[C@@H](C)C(=O)N[C@@H](CC(N)=O)C(=O)N2CCC[C@H]2C(=O)N[C@@H](CNC(=O)Nc2cc(F)cc(F)c2)C(=O)N[C@@H](CC(C)C)C(=O)N2C[C@H](O)C[C@H]2C(=O)N[C@@H](Cc2c[nH]c3ccccc23)C(=O)N[C@@H](CCN)C(=O)N[C@@H](Cc2cn(CC(=O)O)c3ccccc23)C(=O)N1C` [Example 1079] ({CH2CO}-Y[NMeA]NP[Dap]([CO-X37])L[Hyp]W[Dab][Trp(1-CH2COOH)][NMeNle][NMeNle]LCG-NH2; thioether N-14): the IC50 stood at 2.5 nM.

As for `CCCC[C@H]1C(=O)N(C)[C@@H](CCCC)C(=O)N[C@@H](CC(C)C)C(=O)N[C@H](C(=O)NCC(N)=O)CSCC(=O)N[C@@H](Cc2ccc(O)cc2)C(=O)N(C)[C@@H](C)C(=O)N[C@@H](CC(N)=O)C(=O)N2CCC[C@H]2C(=O)N[C@@H](CNC(=S)Nc2ccc(Oc3ccccc3)cc2)C(=O)N[C@@H](CC(C)C)C(=O)N2C[C@H](O)C[C@H]2C(=O)N[C@@H](Cc2c[nH]c3ccccc23)C(=O)N[C@@H](CCNC(=S)Nc2ccc(Oc3ccccc3)cc2)C(=O)N[C@@H](Cc2cn(CC(=O)O)c3ccccc23)C(=O)N1C` [Example 1080] ({CH2CO}-Y[NMeA]NP[Dap](X3)L[Hyp]W[Dab](X3)[Trp(1-CH2COOH)][NMeNle][NMeNle]LCG-NH2; thioether N-14), the IC50 is 3.4 nM.

`CCCC[C@H]1C(=O)N(C)[C@@H](CCCC)C(=O)N[C@@H](CC(C)C)C(=O)N[C@H](C(=O)NCC(N)=O)CSCC(=O)N[C@@H](Cc2ccc(O)cc2)C(=O)N(C)[C@@H](C)C(=O)N[C@@H](CC(N)=O)C(=O)N2CCC[C@H]2C(=O)N[C@@H](CNC(=O)Nc2c(C)cc(C)cc2C)C(=O)N[C@@H](CC(C)C)C(=O)N2C[C@H](O)C[C@H]2C(=O)N[C@@H](Cc2c[nH]c3ccccc23)C(=O)N[C@@H](CCNC(=O)Nc2c(C)cc(C)cc2C)C(=O)N[C@@H](Cc2cn(CC(=O)O)c3ccccc23)C(=O)N1C` [Example 1081] ({CH2CO}-Y[NMeA]NP[Dap]([CO-X74])L[Hyp]W[Dab]([CO-X74])[Trp(1-CH2COOH)][NMeNle][NMeNle]LCG-NH2; thioether N-14): the IC50 came to 2.7 nM.

Consider `CCCC[C@H]1C(=O)N(C)[C@@H](CCCC)C(=O)N[C@@H](CC(C)C)C(=O)N[C@H](C(=O)NCC(N)=O)CSCC(=O)N[C@@H](Cc2ccc(O)cc2)C(=O)N(C)[C@@H](C)C(=O)N[C@@H](CC(N)=O)C(=O)N2CCC[C@H]2C(=O)N[C@@H](CNC(=O)Nc2cc(Cl)c(OC)cc2OC)C(=O)N[C@@H](CC(C)C)C(=O)N2C[C@H](O)C[C@H]2C(=O)N[C@@H](Cc2c[nH]c3ccccc23)C(=O)N[C@@H](CCNC(=O)Nc2cc(Cl)c(OC)cc2OC)C(=O)N[C@@H](Cc2cn(CC(=O)O)c3ccccc23)C(=O)N1C` [Example 1082] ({CH2CO}-Y[NMeA]NP[Dap]([CO-X64])L[Hyp]W[Dab]([CO-X64])[Trp(1-CH2COOH)][NMeNle][NMeNle]LCG-NH2; thioether N-14), for which the IC50 was found to be 1.5 nM.

A word on the IC50: it is the concentration that gives 50% inhibition.
